Laboratory results: patent US10321684B2, “Use of 9-beta-D-adenosine to increase crop production” (The Regents of the University of California, priority 2009, dated 2019)

Assays:
Assay type in all cases: in vivo
[1] = test system: 'Hass' avocado trees bearing an on-crop; test: Trunk injection: spring bloom (bud break) of on-crop avocado trees; conditions: for Floral (with fruit), No. of shoots per 100 nodes / Floral (w/o fruit), No. of shoots per 100 nodes / Determinate Floral, No. of shoots per 100 nodes / Indeterminate Floral, No. of shoots per 100 nodes / Floral, No. of shoots per 100 nodes: 1 g/tree trunk injection in Jan; for Floral (with fruit), No. of shoots per 100 nodes: branches with fruit; for Floral (w/o fruit), No. of shoots per 100 nodes: branches without fruit; for Determinate Floral, No. of shoots per 100 nodes / Indeterminate Floral, No. of shoots per 100 nodes / Floral, No. of shoots per 100 nodes: counted at spring bloom; for Floral, No. of shoots per 100 nodes: total floral shoots
Method: This example describes the use of adenosine to increase spring bud break of ‘Hass’ avocado trees to increase floral intensity and avocado production. Increased bud break was achieved via trunk injection of adenosine (9-beta-D-adenosine) obtained from Sigma Chemical Co. (Catalog No. A9251), alone or with a plant growth regulator. The following treatments were injected (1 g/tree) in mid-January into the trunk of on-crop ‘Hass’ avocado trees in a commercial orchard in Irvine, Calif.: (1) adenosine (Sigma); (2) 6-BA (Sigma); (3) GA3 (ProGibb 40%, Valent BioSciences Corp.); (4) TIBA (Sigma), and (5) TIBA plus adenosine. Each material was supplied at the rate of 1 g per tree dissolved in 50 to 60 ml distilled water using two plastic syringes per tree. There were five individual tree replicates per treatment, including (6) untreated on-crop control trees. For each tree, branches (12 inches long), 1 with fruit and 1 branch without fruit in each of the four tree quadrants, were tagged.

[2] = test system: tomato plants (cv. Supersweet 100); test: Adenosine by irrigation: vegetative and reproductive growth of tomato plants; conditions: irrigation daily
Method: This example describes the increase in fruit production by tomato plants (cv. Supersweet 100), achieved via application of adenosine by irrigation. Adenosine (9-beta-D-adenosine) obtained from Sigma Chemical Co. (Catalog No. A9251) was applied in a sufficient amount of distilled water to move the material into the root zone of ‘Supersweet 100’ tomato plants. Plants receiving treatments 2 and 3 were treated once every 10 days. Plants receiving treatments 4, 5, 6, and 7 were treated daily. The total amount of cytokinin or adenosine received by plants in each treatment by the end of experiment (75 days after planting) is given in parenthesis in the Table 1-1 below. The IPA concentration of the vermicompost tea was determined by radioimmunoassay.

[3] = test system: 'Fina Sodea' Clementine mandarin trees; test: Adenosine by foliar spray (canopy application): fruit number, yield and value of mandarin trees
Method: This example describes the increase in the number and yield of commercially valuable fruit of Clementine mandarin trees achieved by canopy application of adenosine. Adenosine (9-beta-D-adenosine) obtained from Sigma Chemical Co. (Catalog No. A9251) was applied (25 mg/L in 250 gallons of water per acre; 23.66 g/acre) with a 400 psi handgun sprayer one time at maximum peel thickness, which marks the end of the cell division stage of citrus fruit development, to ‘Fina Sodea’ Clementine mandarin trees.

Compound | Floral (with fruit), No. of shoots per 100 nodes [1] | Floral (w/o fruit), No. of shoots per 100 nodes [1] | Determinate Floral, No. of shoots per 100 nodes [1] | Indeterminate Floral, No. of shoots per 100 nodes [1] | Floral, No. of shoots per 100 nodes [1] | # Fruit, average value per plant ([2]; total 0.35 μg by 75 days) | # Fruiting shoots, average value per plant ([2]; total 0.35 μg by 75 days) | # Leaves, average value per plant ([2]; total 0.35 μg by 75 days) | # Veg. shoots, average value per plant ([2]; total 0.35 μg by 75 days) | Fruit diameter ([2]; total 0.35 μg by 75 days) | Main Shoot (mm), average value per plant ([2]; total 0.35 μg by 75 days) | Tap Root (mm), average value per plant ([2]; total 0.35 μg by 75 days) | other results
C=C1C[C@]23C[C@@]1(O)CC[C@H]2[C@@]12C=C[C@H](O)[C@@](C)(C(=O)O1)[C@H]2[C@@H]3C(=O)O [GA3, gibberrillic acid] | 6 bc shoots per 100 nodes | 8 shoots per 100 nodes | 2 b shoots per 100 nodes | 6 shoots per 100 nodes | 7 b shoots per 100 nodes |  |  |  |  |  |  |  | 
CC(C)=CCNc1ncnc2nc[nH]c12 [IPA, isopentenyladenine] |  |  |  |  |  | 10 bc | 11.60 cd | 87 c | 30.80 c | 19.92 c mm | 81.00 mm | 20.25 mm | # Fruit, average value per plant ([2]; total 0.035 μg by 75 days): 13 ab; # Fruiting shoots, average value per plant ([2]; total 0.035 μg by 75 days): 12.40 bc; # Leaves, average value per plant ([2]; total 0.035 μg by 75 days): 99 abc; # Veg. shoots, average value per plant ([2]; total 0.035 μg by 75 days): 30.20 c; Fruit diameter ([2]; total 0.035 μg by 75 days): 21.81 b mm; Main Shoot (mm), average value per plant ([2]; total 0.035 μg by 75 days): 73.75 mm; Tap Root (mm), average value per plant ([2]; total 0.035 μg by 75 days): 25.50 mm
Nc1ncnc2c1ncn2[C@@H]1O[C@H](CO)[C@@H](O)[C@H]1O [Adenosine, 9-beta-D-adenosine] | 8 abc shoots per 100 nodes | 10 shoots per 100 nodes | 3 ab shoots per 100 nodes | 7 shoots per 100 nodes | 10 ab shoots per 100 nodes | 15 a | 17.60 a | 111 a | 38.00 a | 24.13 a mm | 74.00 mm | 28.00 mm | Total kg/tree, Medium ([3]; 25 mg/L once at maximum peel thickness, 3-year cumulative yield, diameter 50.81-57.15 mm): 37.00 kg/tree; net increase in total fruit number ([3]; adenosine applied at maximum peel thickness, numerical (non-significant)): 12,460 fruit/200 trees/acre/3 years; effect on fruit quality ([3]; any year of the 3-year study): did not have a negative effect; juice acid of fruit from treated trees ([3]; year three of the study, P=0.0163): significantly reduced; total soluble solids to acid ratio of the juice ([3]; year three of the study, P=0.0570): higher; number of floral shoots compared to the untreated on-crop control trees ([1]; single trunk injection in January): not significantly different; effect on length of the main shoot or the tap root ([2]; total 0.35 μg by 75 days): did not significantly alter; more leaves than untreated control plants ([2]; total 0.35 μg by 75 days): 2.85 fold; net increase in the number of fruit per plant over the untreated control ([2]; total 0.35 μg by 75 days): 87.5%; increase of average size of individual tomato fruit over untreated control ([2]; total 0.35 μg by 75 days, transverse diameter): 61%
O=C(O)c1cc(I)cc(I)c1I [TIBA, 2,3,5-triiodobenzoic acid] | 11 ab shoots per 100 nodes | 8 shoots per 100 nodes | 1 b shoots per 100 nodes | 8 shoots per 100 nodes | 9 b shoots per 100 nodes |  |  |  |  |  |  |  | 
